Data taken from patent CN1119437A, “环缩酚酸肽pf1022衍生物” (Meiji Seika Kaisha Ltd, priority 1993, dated 1996).

Legend:
鸡蛔虫 = test: Chicken roundworm removal test (Test 1); format: in vivo
巴西日园线虫 = test: Anthelmintic efficacy against rat intestinal nematode (Test 3); format: in vivo; settings: male Wistar rats, 2000 larvae s.c., 10 mg/kg 7 days after infection, adult worms in small intestine counted 10 days after dosing

Compound	存留虫收(average value±SD) (巴西日园线虫)	杀虫率 (鸡蛔虫; dose 5 mg/kg) [%]	also measured
CC(C)C[C@H]1C(=O)O[C@H](Cc2ccccc2)C(=O)N(C)[C@@H](CC(C)C)C(=O)O[C@H](C)C(=O)N(C)[C@@H](CC(C)C)C(=O)O[C@H](Cc2ccccc2)C(=O)N(C)[C@@H](CC(C)C)C(=O)O[C@H](C)C(=O)N1C [PF1022]	403±32.5	–	杀虫率 (鸡蛔虫; dose 0.5 mg/kg): 50-70%; 杀虫率 (鸡蛔虫; dose 1.0 mg/kg): 60-86%
环—(L—MeLeu—D—VALA—L—MeLeu—D—Lac)2 [PF1022-209]	827±388.9	–	–
CC(C)C[C@@H]1NC(=O)[C@@H](C)OC(=O)[C@H](CC(C)C)N(C)C(=O)[C@@H](Cc2ccccc2)OC(=O)[C@H](CC(C)C)NC(=O)[C@@H](C)OC(=O)[C@H](CC(C)C)N(C)C(=O)[C@@H](Cc2ccccc2)OC1=O [PF1022-219, 环—(L—MeLeu—D—Lac—L—Leu—D—PhLac)2]	2084.5±94.0	–	–
CC(C)C[C@H]1C(=O)O[C@H](Cc2ccc(O)cc2)C(=O)N(C)[C@@H](CC(C)C)C(=O)O[C@H](C)C(=O)N(C)[C@@H](CC(C)C)C(=O)O[C@H](Cc2ccccc2)C(=O)N(C)[C@@H](CC(C)C)C(=O)O[C@H](C)C(=O)N1C [PF1022 E, 环—(—L—MeLeu—D—Lac—L—MeLeu—D—TYRA—L—MeLeu-D—Lac—L—Mekeu—D—PhLac)]	2175±134.4	–	杀虫率 (鸡蛔虫; dose 0.5 mg/kg): 70%
CC(C)CC1NC(=O)C(Cc2ccccc2)OC(=O)C(CC(C)C)N(C)C(=O)C(C)OC(=O)C(CC(C)C)NC(=O)C(Cc2ccccc2)OC(=O)C(CC(C)C)N(C)C(=O)C(C)OC1=O (centres unmarked) [PF1022-218, 环—(L—MeLeu—D—PhLac—L—Leu—D—Lac)2]	2400±362.0	–	–
CC(C)C[C@H]1OC(=O)[C@H](CC(C)C)N(C)C(=O)[C@@H](C)OC(=O)[C@H](CC(C)C)N(C)C(=O)[C@@H](Cc2ccccc2)OC(=O)[C@H](CC(C)C)N(C)C(=O)[C@@H](C)OC(=O)[C@H](CC(C)C)N(C)C1=O [PF1022-003, 环—(—L—MeLeu—D—Lac—L—MeLeu—D—PhLac—L—Meleu—D—Lac—L—Meleu—D—LEUA)]	689±48.1	–	杀虫率 (鸡蛔虫; dose 10 mg/kg): 76%
环—(L—MeLeu—D—PhLac—L—MeLeu—D—Lac—L—MeLeu—D—TYRA(OBn)—L—MeLeu—D—Lac) [PF1022-022]	–	84	–
CC(C)CC1C(=O)OC(CC2CCCCC2)C(=O)N(C)C(CC(C)C)C(=O)OC(C)C(=O)N(C)C(CC(C)C)C(=O)OC(CC2CCCCC2)C(=O)N(C)C(CC(C)C)C(=O)OC(C)C(=O)N1C (centres unmarked) [PF1022-ADH, 十二氢—PF 1022]	–	30	–
CC(C)CC1C(=O)OC(CC2CCCCC2)C(=O)N(C)C(CC(C)C)C(=O)OC(C)C(=O)N(C)C(CC(C)C)C(=O)OC(Cc2ccccc2)C(=O)N(C)C(CC(C)C)C(=O)OC(C)C(=O)N1C (centres unmarked) [PF1022-AHH, 六氢—PF1022]	–	62	–
CC(C)CC1C(=O)OC(C)C(=O)N(C)C(CC(C)C)C(=O)OC(C)C(=O)N(C)C(CC(C)C)C(=O)OC(C)C(=O)N(C)C(CC(C)C)C(=O)OC(C)C(=O)N1C (centres unmarked) [PF1022-002, 环—(L—meLeu—D—Lac—)4]	1976.5±306.2	–	–
